Test results reported in ChEMBL document CHEMBL1649196, “Comparative in vitro susceptibilities of human mycoplasmas and ureaplasmas to a new investigational ketolide, CEM-101” (2009).
Values after ≈ are worked out from the molar mass of the structure shown.

Tests used:
Assay type in all cases: functional
[1] = test system: Mycoplasma genitalium; assay: Antimicrobial activity against Mycoplasma genitalium isolated from human by two fold serial dilution method; conditions: Mycoplasmoides genitalium
[2] = test system: Mycoplasmoides pneumoniae; assay: Antimicrobial activity against Mycoplasma pneumoniae isolated from human by two fold serial dilution method
[3] = test system: Ureaplasma parvum; assay: Antimicrobial activity against Ureaplasma parvum isolated from human by two fold serial dilution method
[4] = test system: Ureaplasma urealyticum; assay: Antimicrobial activity against Ureaplasma urealyticum isolated from human by two fold serial dilution method
[5] = test system: Mycoplasma fermentans; assay: Antimicrobial activity against Mycoplasma fermentans isolated from human by two fold serial dilution method; conditions: Mycoplasmopsis fermentans
[6] = test system: Metamycoplasma hominis; assay: Antimicrobial activity against Mycoplasma hominis isolated from human by two fold serial dilution method

SMILES | MIC [1] | MIC50 [2] | MIC90 [2] | MIC50 [3] | MIC90 [3] | MIC50 [4] | MIC90 [4] | MIC50 [5] | MIC90 [5] | MIC [6] | MIC50 [6] | MIC90 [6] | MIC [4] | MIC [5]
CC[C@H]1OC(=O)[C@H](C)[C@@H](O[C@H]2C[C@@](C)(OC)[C@@H](O)[C@H](C)O2)[C@H](C)[C@@H](O[C@@H]2O[C@H](C)C[C@H](N(C)C)[C@H]2O)[C@](C)(O)C[C@@H](C)CN(C)[C@H](C)[C@@H](O)[C@]1(C)O [AZITHROMYCIN] | ≤ 0.032 ng/mL | 0.25 ng/mL (≈ 0.334 nM) | 0.5 ng/mL (≈ 0.668 nM) | 2000 ng/mL (≈ 2670 nM) | 4000 ng/mL (≈ 5340 nM) | 2000 ng/mL (≈ 2670 nM) | 4000 ng/mL (≈ 5340 nM) | 500 ng/mL (≈ 668 nM) | 500 ng/mL (≈ 668 nM) |  |  |  |  | 
CCC[C@@H]1C[C@@H](C(=O)N[C@@H]([C@H]2O[C@H](SC)[C@H](O)[C@@H](O)[C@H]2O)[C@H](C)Cl)N(C)C1 [CLINDAMYCIN] |  |  |  |  |  |  |  | 16 ng/mL (≈ 37.6 nM) | 31 ng/mL (≈ 72.9 nM) | ≤ 8 ng/mL | ≤ 8 ng/mL | 16 ng/mL (≈ 37.6 nM) |  | 
C[C@H]1c2cccc(O)c2C(=O)C2=C(O)[C@]3(O)C(=O)C(C(N)=O)=C(O)[C@@H](N(C)C)[C@@H]3[C@@H](O)[C@@H]21.O [DOXYCYCLINE] | ≤ 8 ng/mL | 125 ng/mL | 250 ng/mL | 8000 ng/mL | 16000 ng/mL | 1000 ng/mL | 16000 ng/mL | 125 ng/mL | 500 ng/mL |  | 125 ng/mL | 8000 ng/mL |  | 
C[C@H]1COc2c(N3CCN(C)CC3)c(F)cc3c(=O)c(C(=O)O)cn1c23.C[C@H]1COc2c(N3CCN(C)CC3)c(F)cc3c(=O)c(C(=O)O)cn1c23.O [LEVOFLOXACIN] | 125 ng/mL | 500 ng/mL | 500 ng/mL | 500 ng/mL | 2000 ng/mL | 500 ng/mL | 1000 ng/mL | 31 ng/mL | 125 ng/mL |  | 250 ng/mL | 500 ng/mL | 500 ng/mL | 
CC(=O)NC[C@H]1CN(c2ccc(N3CCOCC3)c(F)c2)C(=O)O1 [LINEZOLID] | 4000 ng/mL (≈ 11900 nM) | 64000 ng/mL (≈ 190000 nM) | 128000 ng/mL (≈ 379000 nM) | > 256000 ng/mL | > 256000 ng/mL |  | > 256000 ng/mL | 1000 ng/mL (≈ 2960 nM) | 4000 ng/mL (≈ 11900 nM) |  | 2000 ng/mL (≈ 5930 nM) | 4000 ng/mL (≈ 11900 nM) | ≥ 256000 ng/mL | 
CC[C@H]1OC(=O)[C@@](C)(F)C(=O)[C@H](C)[C@@H](O[C@@H]2O[C@H](C)C[C@H](N(C)C)[C@H]2O)[C@](C)(OC)C[C@@H](C)C(=O)[C@H](C)[C@H]2N(CCCCn3cc(-c4cccc(N)c4)nn3)C(=O)O[C@]12C [SOLITHROMYCIN] | ≤ 0.032 ng/mL | 0.032 ng/mL (≈ 0.0379 nM) | 0.125 ng/mL (≈ 0.148 nM) | 8 ng/mL (≈ 9.47 nM) | 16 ng/mL (≈ 18.9 nM) | 8 ng/mL (≈ 9.47 nM) | 31 ng/mL (≈ 36.7 nM) | ≤ 8 ng/mL | ≤ 8 ng/mL |  | 4 ng/mL (≈ 4.73 nM) | 8 ng/mL (≈ 9.47 nM) |  | ≤ 8 ng/mL
CC[C@H]1OC(=O)[C@H](C)C(=O)[C@H](C)[C@@H](O[C@@H]2O[C@H](C)C[C@H](N(C)C)[C@H]2O)[C@](C)(OC)C[C@@H](C)C(=O)[C@H](C)[C@H]2N(CCCCn3cnc(-c4cccnc4)c3)C(=O)O[C@]12C [TELITHROMYCIN] | ≤ 0.03 ng/mL | 0.25 ng/mL (≈ 0.308 nM) | 1 ng/mL (≈ 1.23 nM) | 63 ng/mL (≈ 77.6 nM) | 125 ng/mL (≈ 154 nM) | 63 ng/mL (≈ 77.6 nM) | 250 ng/mL (≈ 308 nM) | ≤ 8 ng/mL | 16 ng/mL (≈ 19.7 nM) |  | 250 ng/mL (≈ 308 nM) | 500 ng/mL (≈ 616 nM) |  | 
